Earlier results, collected in US20060210645A1, “Pharmaceutically acceptable carrier for ophthalmic compositions” (priority 2005, published 2006).

Columns and labels:
[1] = relative to methyltestosterone
[2] = relative to methyltestosterone; remark: listed apart in the source

Structure (SMILES): C[C@]12COC(=O)C[C@@H]1CC[C@@H]1[C@@H]2CC[C@@]2(C)[C@H]1CC[C@]2(C)O [oxandrolone, 17 alpha-methyl-17β-hydroxy-2-oxa-5 alpha-androstan-3-one]
- anabolic activity, % of that of methyltestosterone [1]: 322%
- androgenic activity, % of that of methyltestosterone [2]: 24%
